Article PMC12518634, “The noncanonical function of liver-type phosphofructokinase potentiates the efficacy of HDAC inhibitors in cancer” (Signal Transduction and Targeted Therapy, 2025)
Where a name gives a salt, the structure may show the parent alone. Read-outs that look alike come from different tables or passages of the source.

What was measured:
783C-6 = assay: High-throughput drug screen, CellTiter-Glo viability, 72 h; assay type: cell-based, human; set-up: AUC: scale not given here; settings: for EC50: read-out: EC50
Method: (§1) The cells were seeded and incubated with a gradient of concentrations of drugs for 72 h, after which the cell viability was assessed (Supplementary Fig. 1a). The drug library primarily comprises epigenetic drugs, including HDAC inhibitors, DNA methyltransferase inhibitors, and histone demethylase inhibitors, as well as conventional chemotherapies and kinase inhibitors (Supplementary Fig. 1b and Supplementary Table 1). […] To identify novel therapeutics against CCA, we conducted a high-throughput screen employing PerkinElmer’s integrated robotic Explorer G3 workstations. […] Following dilution to five specified concentrations, drugs were dispensed into 96-well plates in the sequence detailed in Supplementary Fig. 1a. The CCA cell lines were subsequently plated in 384-well plates at a density of 3000 cells per well in a 20 μL total volume. After a 24-h incubation, the compounds were added to the wells and incubated for 72 h. We then quantified cell viability via the CellTiter-Glo luminescent assay according to the manufacturer’s protocol. Signal detection was carried out on a Synergy2 plate reader operated by Gen5 software (BioTek). For data processing, the raw luminescence data were processed through the Breeze pipeline for curve fitting, yielding quality control metrics (e.g., Z-factors) and drug response parameters (AUC and DSS), as adapted from previous work.[54] Drug responses were evaluated on the basis of the drug sensitivity score (DSS), and a cutoff of ≥10 was used to define efficacy. The complete drug library and screening dataset are available in Supplementary Tables 1-3.
(§2) Supplementary Fig. 1. A high-throughput drug screen to identify drugs targeting CCA. a Schematic representation of the drug screening protocol. […] Each drug was tested at five different concentrations (10, 1, 0.1, 0.01, and 0.001 μM), and each treatment was replicated twice. b Classification of drugs used for screening.

1405R3 = assay: as above; assay type: cell-based, human; set-up: AUC: scale not given here; settings: for EC50: fitted dose-response curve, Min.Conc.tested 1, Max.Conc.tested 10000, CellTiter-Glo, read-out: EC50
Method: as §1, §2

[1] = 783C-6 DSRT analysis, DSS calculated from the dose-response curve
[2] = 783C-6 DSRT analysis, MIN of the fitted dose-response curve
[3] = 783C-6 DSRT analysis, area under the dose-response curve
[4] = 783C-6 DSRT analysis, slope of the fitted dose-response curve
[5] = 1405R3 DSRT analysis, area under the dose-response curve
[6] = 1405R3 DSRT analysis, lower asymptote of fitted dose-response curve
[7] = 1405R3 DSRT analysis, slope of fitted dose-response curve
[8] = Homo sapiens, 1405R3 DSRT analysis, 72 h
[9] = 783C-6 DSRT analysis, CellTiter-Glo viability, 72 h, fitted dose-response curve, Min.Conc.tested 1, Max.Conc.tested 10000

SMILES	DSS (783C-6; [1])	MIN (783C-6; [2])	AUC (783C-6; [3])	SLOPE (783C-6; [4])	DSS (1405R3; 1405R3 DSRT analysis)	AUC (1405R3; [5])	MIN (1405R3; [6])	SLOPE (1405R3; [7])	further results
CCC(CC)n1ccc2c(C(=O)NCc3c(C)cc(C)[nH]c3=O)cc(C#N)cc21 [EI1]	0	98.2	0.7	-0.8	0	0.1	100	-0.1	–
CC(C)N(CCCNC(=O)Nc1ccc(C(C)(C)C)cc1)C[C@H]1O[C@@H](n2ccc3c(N)ncnc32)[C@H](O)[C@@H]1O [EPZ004777]	0	97.4	0.7	–	0	0.5	98.8	–	–
O=C(NC[C@H](O)CN1CCc2ccccc2C1)c1cc(NC2COC2)ncn1 [EPZ015666]	0	85	4.5	–	0	15.4	90.1	–	–
CNCCN(C)Cc1cn[nH]c1-c1ccc(OC2CC(OCCC3CCOCC3)C2)cc1.Cl (centres unmarked) [EPZ020411 2HCl]	0	96.5	1.7	-0.6	0	0.3	97.2	-2.5	–
Nc1ccccc1NC(=O)c1ccc(CNC(=O)OCc2cccnc2)cc1 [Entinostat]	9.1	8.3	78	–	10	87.7	5.2	–	EC50 (783C-6; Homo sapiens, 72 h): 1420 nM; EC50 (1405R3; [8]): 1200 nM
COc1cccc2c1C(=O)c1c(O)c3c(c(O)c1C2=O)C[C@@](O)(C(=O)CO)C[C@@H]3O[C@H]1C[C@H](N)[C@@H](O)[C@H](C)O1 [Epirubicin]	13.9	33.9	113.1	–	7.1	64.9	27.7	–	EC50 (783C-6; Homo sapiens, 72 h): 194 nM; EC50 (1405R3; [8]): 1310 nM
C#Cc1cccc(Nc2ncnc3cc(OCCOC)c(OCCOC)cc23)c1 [Erlotinib HCl]	0	77	6.9	–	0	27.3	82.4	–	–
COc1cc2c(Oc3ccc(NC(=O)C4(C(=O)Nc5ccc(F)cc5)CC4)cc3F)ccnc2cc1OCCCN1CCOCC1 [Foretinib]	4.1	32.7	37.2	–	2.9	27.8	51.5	–	EC50 (783C-6; Homo sapiens, 72 h): 2850 nM; EC50 (1405R3; [8]): 2710 nM
CC[C@H](C)n1cc(C)c2c(C(=O)NCc3c(C)cc(C)[nH]c3=O)cc(-c3ccc(N4CCNCC4)nc3)cc21 [GSK126]	0	91	2.7	-1	0	22.4	85.6	-0.1	–
CCCc1cc(C)[nH]c(=O)c1CNC(=O)c1cc(-c2ccnc(N3CCN(C)CC3)c2)cc2c1cnn2C(C)C [GSK343]	0	98.1	2.9	–	0	13.6	91.2	–	–
O=C(CCc1ccc(CN[C@H](C(=O)OC2CCCC2)C2CCCCC2)cn1)NO [GSK3117391]	7.5	4.1	65.5	-2.5	8.4	74.7	7.4	-1.9	EC50 (783C-6; [9]): 2090 nM; EC50 (1405R3; 1405R3 DSRT analysis, 72 h): 1580 nM
O=C(O)CCNc1cc(N2CCc3ccccc3CC2)nc(-c2ccccn2)n1 [GSK J1]	0	99.9	0	-1.3	0	0.1	100	-0.1	–
CCOC(=O)CCNc1cc(N2CCc3ccccc3CC2)nc(-c2ccccn2)n1 [GSK J4 HCl]	0	70.3	8.9	–	2.7	26.1	65	–	EC50 (1405R3; [8]): 1800 nM
c1ccc([C@@H]2C[C@H]2NC2CCNCC2)cc1 [GSK-LSD1 2HCl]	–	–	–	–	0	–	–	–	D1 (783C-6): 98.8; D2 (783C-6): 106.9; D3 (783C-6): 94.2; D4 (783C-6): 93.9; D5 (783C-6): 108.3; MAX (783C-6): 100; MIN (783C-6): 93.9; SLOPE (783C-6): -0.3; AUC (783C-6; 72 h): 6; DSS (783C-6; 72 h): 0; D1 (1405R3): 104.9; D2 (1405R3): 104.6; D3 (1405R3): 91.3; D4 (1405R3): 100.7; D5 (1405R3): 129.6; MAX (1405R3): 100; MIN (1405R3): 91.3; SLOPE (1405R3): -0.4; AUC (1405R3; 72 h): 5.8
COc1cc2ncnc(Nc3ccc(F)c(Cl)c3)c2cc1OCCCN1CCOCC1 [Gefitinib]	2.5	77.5	27	–	3.6	33.5	70.6	–	–
Nc1ccn([C@@H]2O[C@H](CO)[C@@H](O)C2(F)F)c(=O)n1 [Gemcitabine]	7.6	63.5	82.5	–	17.6	151.9	40	–	EC50 (783C-6; Homo sapiens, 72 h): 40.1 nM; EC50 (1405R3; [8]): 26.1 nM
CCN(CC)Cc1ccc2cc(COC(=O)Nc3ccc(C(=O)NO)cc3)ccc2c1 [Givinostat]	9.2	1.5	81.1	–	9.2	79.9	1.5	–	EC50 (783C-6; Homo sapiens, 72 h): 1520 nM; EC50 (1405R3; [8]): 1550 nM
O=C(NO)c1ccc(CC(=O)N(CCO)c2ccccc2)cc1 [HPOB]	0	98.7	0.4	-1	0	0.1	100	-0.1	–
CCNC(=O)C[C@@H]1N=C(c2ccc(Cl)cc2)c2cc(OC)ccc2-n2c(C)nnc21 [I-BET-762]	0	97	–	-2.5	6	–	42	-2.5	–
O=C1[C@H](Cc2ccc(O)cc2)N2C(=O)CCN(C(=O)NCc3ccccc3)[C@H]2CN1Cc1cccc2ccccc12 [ICG-001]	0	90.7	16.9	-2.5	0	0.1	100	-0.1	–
C#Cc1cccc(Nc2ncnc3cc4c(cc23)OCCOCCOCCO4)c1 [Icotinib]	0	90.4	16.8	–	1.4	21.6	84.3	–	–
Clc1ccc(N/N=C(\c2ccccc2)c2ccccn2)nc1 [JIB-04]	4.8	18.2	43.9	-2.5	8.1	73.8	34.7	-1.2	EC50 (783C-6; [9]): 2960 nM; EC50 (1405R3; 1405R3 DSRT analysis, 72 h): 766 nM
Cc1nn2c([nH]c(=O)c3cccnc32)c1C#N [KDM4D-IN-1]	0	93.6	0.8	-2.5	0	9.3	94	-0.1	–
Cc1cn(CCN2CCN(c3ccccc3-c3cc(C#N)cc(C(=O)NCCCN4CCCC4)c3)CC2)c2ccccc12 [LLY-507]	3.9	23.1	36.6	–	5.5	49.7	1.8	–	EC50 (783C-6; Homo sapiens, 72 h): 3430 nM; EC50 (1405R3; [8]): 3190 nM
Cc1cc(C)cc(C(=O)NOCCCCCC(=O)NO)c1 [LMK-235]	9.8	3.5	84.5	-2.5	11.6	101.6	2	-1.7	EC50 (783C-6; [9]): 1330 nM; EC50 (1405R3; 1405R3 DSRT analysis, 72 h): 927 nM
CS(=O)(=O)CCNCc1ccc(-c2ccc3ncnc(Nc4ccc(OCc5cccc(F)c5)c(Cl)c4)c3c2)o1 [Lapatinib]	0	93.5	2	–	0	0	99.9	–	–
